Measured values published in ChEMBL document CHEMBL1153238, “Spirodiketopiperazine-based CCR5 antagonists: Improvement of their pharmacokinetic profiles” (Bioorg Med Chem Lett, 2010).
Values belong to the compound of their own block, whether it stands above or below them.

Tests used:
[1] = tested on: Human immunodeficiency virus 1; test: Antiviral activity against HIV1 Ba-L(R5) infected in human PBMC by p24 antigen capture assay; settings: Human immunodeficiency virus 1, Ba-L(R5)
Liver microsomes = test: Metabolic stability in rat liver microsomes assessed as compound remaining after 15 mins; format: ADME, Microsome; settings: 0.25 h
[2] = Solubility of the compound; format: physicochemical
Rattus norvegicus [3] = test: AUC (0 to infinity) in rat at 30 mg/kg, po administered as single dose; format: ADME, organism-based, Plasma; parameters: time infinity, dose 30 mg/kg, route oral; settings: in vivo
Rattus norvegicus [4] = test: Half life in rat at 30 mg/kg, po administered as single dose; format: ADME, organism-based; parameters: dose 30 mg/kg, route oral; settings: in vivo
Rattus norvegicus [5] = test: Bioavailability in rat at 30 mg/kg, po administered as single dose; format: ADME, organism-based; settings: in vivo
Rattus norvegicus [6] = test: AUC (0 to infinity) in rat at 30 mg/kg, iv; format: ADME, organism-based, Plasma; parameters: time infinity, dose 30 mg/kg, route intravenous; settings: in vivo
[7] = Cmax in rat at 30 mg/kg, po administered as single dose; format: ADME, organism-based; parameters: dose 30 mg/kg, route oral; settings: in vivo
Rattus norvegicus [8] = test: Half life in rat at 30 mg/kg, iv; format: ADME, organism-based; parameters: dose 30 mg/kg, route intravenous; settings: in vivo
[9] = molecular target: C-C chemokine receptor type 5 (Homo sapiens, UniProt P51681); test: Antagonist activity at human CCR5 receptor overexpressed in CHO cells assessed as inhibition of MIP-1-alpha-induced calcium mobilization; format: functional, cell-based
Sequence of C-C chemokine receptor type 5 (P51681 whole entry): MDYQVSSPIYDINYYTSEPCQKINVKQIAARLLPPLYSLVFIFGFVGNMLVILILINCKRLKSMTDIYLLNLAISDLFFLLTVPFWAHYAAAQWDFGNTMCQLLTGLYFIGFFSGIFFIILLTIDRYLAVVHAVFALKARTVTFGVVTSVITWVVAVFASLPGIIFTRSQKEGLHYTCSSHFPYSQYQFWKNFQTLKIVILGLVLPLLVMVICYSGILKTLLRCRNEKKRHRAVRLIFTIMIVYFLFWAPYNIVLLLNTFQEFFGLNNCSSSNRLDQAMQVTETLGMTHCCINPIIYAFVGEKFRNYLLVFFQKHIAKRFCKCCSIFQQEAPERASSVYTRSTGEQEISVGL

Compound: Cc1c(O)cccc1C(=O)N[C@@H](CSc1ccccc1)[C@H](O)CN1C[C@H]2CCCC[C@H]2C[C@H]1C(=O)NC(C)(C)C
IC50 [1]: 12 nM

Stability (Liver microsomes): 33%
solubility [2]: < 5 µM
AUC (Rattus norvegicus [3]): 74.4 ng·h/mL
t1/2 (Rattus norvegicus [4]): 1.72 h
F (Rattus norvegicus [5]): 1.9%
AUC (Rattus norvegicus [6]): 400 ng·h/mL
Cmax [7]: 16.7 ng/mL
t1/2 (Rattus norvegicus [8]): 0.332 h
Compound: CCCCN1C(=O)C(CC2CCCCC2)NC(=O)C12CCN(Cc1ccc(Oc3ccccc3)cc1)CC2.Cl (racemic)

IC50 [9]: 180 nM
Compound: CCCCN1C(=O)C(CC(C)C)NC(=O)C12CCN(Cc1ccc3c(c1)OCCO3)CC2 (racemic)
